# In ChEMBL document CHEMBL6153034, “Synthesis of dolutegravir derivatives modified by 1,2,3-triazole structure and their anti-inflammatory activity in LPS-induced BV2 cells” (Bioorg Med Chem Lett, 2025):
# Columns and labels:
# RAW264.7 = experiment: Antiinflammatory activity in LPS-induced mouse RAW264.7 cells assessed as inhibition of NO production; format: functional, cell-based
# [1] = test system: Human immunodeficiency virus 1; experiment: Antiviral activity against HIV-1; format: functional, organism-based
# [2] = Cytotoxicity against mouse BV-2 cells assessed as cell viability at 1 uM by MTT assay relative to control; format: toxicity, cell-based; settings: read-out: Activity
# [3] = Cytotoxicity against mouse BV-2 cells assessed as cell viability at 10 uM by MTT assay relative to control; format: toxicity, cell-based; settings: read-out: Activity
# BV-2 [4] = experiment: Antiinflammatory activity in LPS induced mouse BV-2 cells assessed as inhibition of NO production by Griess reagent based assay; format: functional, cell-based
# BV-2 [5] = experiment: Antiinflammatory activity in LPS induced mouse BV-2 cells assessed as NO production at 1 uM by Griess reagent based assay relative to control
# BV-2 [6] = experiment: Antiinflammatory activity in LPS induced mouse BV-2 cells assessed as NO production at 10 uM by Griess reagent based assay relative to control
# [7] = test system: Human immunodeficiency virus 1; experiment: Antiviral activity against HIV-1 infected in human C8166 cells assessed as inhibition of virus-induced cytopathic effect; format: functional, organism-based; settings: Human immunodeficiency virus 1, C8166
# BV-2 [8] = experiment: Antiinflammatory activity in LPS-induced mouse BV-2 cells assessed as reduction in NO release relative to control; format: functional; parameters: scale not given: the % may be the effect or the level left
Structure (SMILES),IC50 (RAW264.7) [µM],EC50 [1] [µM],viability at 1 µM [2] [%],viability at 10 µM [3] [%],IC50 (BV-2 [4]) [µM],"level, % of control at 1 µM (BV-2 [5]) [%]","level, % of control at 10 µM (BV-2 [6]) [%]",EC50 [7] [µM],Activity (BV-2 [8]) [%]
Cc1ccc([C@@](C)(O)CC[C@@H](O)C(C)(C)O)cc1,< 10,< 10,–,–,–,–,–,–,–
COc1c2n(cc(C(=O)Nc3cccc(-c4cn(-c5ccccc5I)nn4)c3)c1=O)C[C@@H]1OCC[C@@H](C)N1C2=O,–,–,96.4,89.2,5.03,78.4,52.1,–,–
COc1c2n(cc(C(=O)Nc3cccc(-c4cn(-c5c(C)cc(C)cc5C)nn4)c3)c1=O)C[C@@H]1OCC[C@@H](C)N1C2=O,–,–,102,96.7,9.68,85.1,46,–,–
C=CC(C)(C)c1cc2cc([C@@H](O)[C@@H](O)C(C)(C)O)c(O)cc2oc1=O,< 10,–,–,–,–,–,–,< 10,–
COc1ccccc1-n1cc(-c2cccc(NC(=O)c3cn4c(c(OC)c3=O)C(=O)N3[C@H](C)CCO[C@H]3C4)c2)nn1,–,–,109,76.8,11,76,48.6,–,–
COc1c2n(cc(C(=O)Nc3ccc(-c4cn(-c5ccccc5I)nn4)cc3)c1=O)C[C@@H]1OCC[C@@H](C)N1C2=O,–,–,110,98.2,–,98.2,106,–,–
CCc1ccccc1-n1cc(-c2cccc(NC(=O)c3cn4c(c(OC)c3=O)C(=O)N3[C@H](C)CCO[C@H]3C4)c2)nn1,–,–,101,49.8,–,94.5,59.9,–,–
COc1c2n(cc(C(=O)Nc3ccccc3-c3cn(-c4cc(C(F)(F)F)cc(C(F)(F)F)c4)nn3)c1=O)C[C@@H]1OCC[C@@H](C)N1C2=O,–,–,104,112,–,86.6,73,–,–
COc1c2n(cc(C(=O)Nc3cccc(-c4cn(-c5ccc(C(F)(F)F)cc5)nn4)c3)c1=O)C[C@@H]1OCC[C@@H](C)N1C2=O,–,–,71.5,56.3,–,83.7,48.3,–,–
CC(=O)Oc1ccc2c(=O)c(-c3ccc(-n4cc(-c5ccc6c(c5)C(=O)N5CCCC5C(=O)N6)nn4)cc3)coc2c1 (stereo not drawn),–,–,–,–,–,–,–,–,64.28
COc1c2n(cc(C(=O)Nc3ccc(-c4cn(-c5ccccc5F)nn4)cc3)c1=O)C[C@@H]1OCC[C@@H](C)N1C2=O,–,–,101,83,–,98.5,87.2,–,–
COc1c2n(cc(C(=O)Nc3cccc(-c4cn(-c5ccccc5)nn4)c3)c1=O)C[C@@H]1OCC[C@@H](C)N1C2=O,–,–,104,62.3,–,78.6,77.3,–,–
C[C@@H]1CCO[C@H]2Cn3cc(C(=O)NCc4ccc(F)cc4F)c(=O)c(O)c3C(=O)N12 [DOLUTEGRAVIR],–,–,97.5,77.6,–,96,51.2,–,–
